# In patent US5670538A, “Use of prodelphinidins for obtaining medicaments intended for the treatment of arthrosis” (Laboratoires Dolisos, priority 1992, dated 1997):
# Test system: human articular chondrocytes
# Assay: Radioimmunoassay of type II collagen (coll. II) produced in tridimensional culture of human chondrocytes
# Format: cell-based
# Conditions: for activity at 1 µg/mL / activity at 10 µg/mL / activity at 100 µg/mL: Homo sapiens, Chondrocyte, 288 h, control = 100, read-out: Cumulative release of coll.II over 12 days, %; for Type II collagen in the culture media, effect in words / Collagen II in the clusters, effect in words: 10 and 100 μg/ml; for Coll. II in the clusters / Collagen II in the clusters, effect in words: experiment 397
# Source text: The model used for testing the proanthocyanidols, namely the tridimensional culture of human chondrocytes allows chondrorepair to be quantified by the production of matrix substances: type II collagen, proteoglycans, and chondroresorption by the reduction in the levels of prostaglandin E2 and of OH° and O°2 type free radicals produced.
# 1. Tridimensional culture of human chondrocytes
# The technique used has been described in detail (Bassleer et al., 1986).
# Briefly, human articular chondrocytes are cultivated in DMEM (Dulbecco's Modification of Eagle's Medium--ICN--Gand, Belgium) with either Ultroser G 1% (GIBCO, Gand, Belgium) or 10% of foetal calf serum (ICN--Gand--Belgium), and 50 μg of ascorbic acid/ml added to it. The cartilage originates from the apparently normal zone of heads of human femur suffering from arthrosis, immediately after an operation carried out to insert a total hip prosthesis; it can also originate from the head of a healthy femur, but which has undergone a traumatism and has had to be replaced. This cartilage is then digested by clostridial collagenase 1 mg/ml (Boehringer-Mannheim, Germany) in a buffer (NaCl 120 mM, CaCl2 1 mM, KCl 5 mM, KH2 PO4 1 mM, NaHCO3 25 mM, glucose 2 mM and Hepes 30 mM, pH 7.4) for 24 hours. After 6 successive washings and centrifugations, the chondrocytes, isolated from their matrix, are cultured in flasks (10^6 cells/2 ml of culture medium) placed on a gyrator (10 rpm). The cultures are kept at 37° C. in an atmosphere of air 95%-CO2 5% (Bassleer et al., 1986). Cultivated under these conditions, after 4 to 5 days the chondrocytes form a tridimensional cluster in each flask. These clusters, which at first have a flocculent appearance, then tend to condense during the culture. After two weeks, their diameter is, in general, from 1 to 2 mm.
# The fresh weight of the clusters increases with the duration of the culture, above all during the few first days.
# 3. Radioimmunoassay of type II collagen (coll. II)
# The method for the radioimmunoassay of coll. II has been described in detail (Henrotin et al., 1990). The coll. II is extracted from human articular cartilage according to the technique described by Herbage et al. (1977). The antiserum against coll. II was obtained from rabbits according to the technique of Vaitukaitis et al. (1971).
# The assay is carried out by sequential saturation. In the first instance, the radioimmunoassay is carried out in a 0.3 ml volume consisting of 0.2 ml of incubation buffer (PBS-50 mM PO4, 300 mM NaCl, 5 g/l BSA (W/V), 6.7 mM sodium azide, pH 7.4) containing the reference coll. II (0.5 to 500 ng) or the sample to be assayed and 0.1 ml of anti-coll. II antiserum from guinea pigs diluted to 1/5000 (24 hours at 4° C.). In the second instance, 0.1 ml of ^125 I-coll. II tracer labelled according to the iodogenic technique (Salacynski et al., 1979 and diluted so as to obtain 20,000 cpm/0.1 ml) is added. After 24 hours at 4° C., the collagen-antibody complexes are separated from the free radioactive coll. II by the double antibody system (Franchimont et al. 1983). Sequential saturation gives a sensitivity of 3 ng/tube. The accuracy of the method is 10%. The coefficients of the intra- and inter assay variation are 10% and 20% respectively.
# The assay is specific to human articular type II collagen.
# No cross reaction is obtained with bovine collagen of type I, III or IV.
# The culture media are stored at -20° C. in the presence of enzymatic inhibitors (Oegema et al., 1975). These media are assayed by the radio immunological method without any treatment beforehand. The chondrocyte clusters are washed and dissociated with ultrasonics according to the method described for the assay of the PGs. After centrifugation (1500 rpm, 10 minutes), the residue is extracted using 500 mM acetic acid under agitation for 24 hours at 4° C. The supernatant of the homogenate and the extract of the residue are mixed together and assayed after equilibration at pH 7.4 using 4M NaOH.
# The recovery of coll. […]
# [1] = 1% Ultroser G, culture time 0-4 days, 1 μg/ml
# [2] = 1% Ultroser G, culture time 0-4 days, 10 μg/ml
# [3] = 1% Ultroser G, culture time 0-4 days, 100 μg/ml
# [4] = 1% Ultroser G, culture time 4-8 days, 1 μg/ml
# [5] = 1% Ultroser G, culture time 4-8 days, 10 μg/ml
# [6] = 1% Ultroser G, culture time 4-8 days, 100 μg/ml
# [7] = 1% Ultroser G, culture time 8-12 days, 1 μg/ml
# [8] = 1% Ultroser G, culture time 8-12 days, 10 μg/ml
# [9] = 1% Ultroser G, culture time 8-12 days, 100 μg/ml
# [10] = foetal calf serum, Table 18, 0-4 days, 10 μg/ml
# [11] = foetal calf serum, Table 18, 0-4 days, 100 μg/ml
# [12] = foetal calf serum, Table 18, 4-8 days, 10 μg/ml
# [13] = foetal calf serum, Table 18, 4-8 days, 100 μg/ml
# [14] = foetal calf serum, Table 19, 0-4 days, 10 μg/ml
# [15] = foetal calf serum, Table 19, 0-4 days, 100 μg/ml
# [16] = foetal calf serum, Table 19, 4-8 days, 10 μg/ml
# [17] = foetal calf serum, Table 19, 4-8 days, 100 μg/ml
# [18] = foetal calf serum, 4-8 days, 10 μg/ml
# [19] = foetal calf serum, 4-8 days, 100 μg/ml
Structure (SMILES),"Average concentrations (m ± SD) of type II collagen in the clusters of chondrocytes at the end of 12 days of culture (1% Ultroser G, 1 μg/ml)","Cumulative release of coll.II over 12 days, Abs (1% Ultroser G, 1 μg/ml) [ng/μg DNA/12 days]","Average concentrations (m ± SD) of type II collagen in the clusters of chondrocytes at the end of 12 days of culture (1% Ultroser G, 10 μg/ml)","Cumulative release of coll.II over 12 days, Abs (1% Ultroser G, 10 μg/ml) [ng/μg DNA/12 days]","Average concentrations (m ± SD) of type II collagen in the clusters of chondrocytes at the end of 12 days of culture (1% Ultroser G, 100 μg/ml)","Cumulative release of coll.II over 12 days, Abs (1% Ultroser G, 100 μg/ml) [ng/μg DNA/12 days]",Coll. II released in the culture medium [1] [ng/μg DNA/96 h],Coll. II released in the culture medium [2] [ng/μg DNA/96 h],Coll. II released in the culture medium [3] [ng/μg DNA/96 h],Coll. II released in the culture medium [4] [ng/μg DNA/96 h],Coll. II released in the culture medium [5] [ng/μg DNA/96 h],Coll. II released in the culture medium [6] [ng/μg DNA/96 h],Coll. II released in the culture medium [7] [ng/μg DNA/96 h],Coll. II released in the culture medium [8] [ng/μg DNA/96 h],Coll. II released in the culture medium [9] [ng/μg DNA/96 h],"activity at 1 µg/mL (1% Ultroser G, 1 μg/ml) [%]","activity at 10 µg/mL (1% Ultroser G, 10 μg/ml) [%]","activity at 100 µg/mL (1% Ultroser G, 100 μg/ml) [%]","Type II collagen in the culture media, effect in words (foetal calf serum)",Coll. II released in the culture medium [10] [ng/μg DNA/96 H],also measured
"Oc1cc(O)c2c(c1)O[C@H](c1cc(O)c(O)c(O)c1)[C@@H](O)[C@@H]2c1c(O)cc(O)c2c1O[C@H](c1cc(O)c(O)c(O)c1)[C@H](O)C2 [Substance Ia, GC-(4 alpha→8) EGC]",105 ± 13 ng per μg of DNA,482,165 ± 21 ng per μg of DNA,787,175 ± 19 ng per μg of DNA,962,233 ± 25,301 ± 52,462 ± 51,147 ± 19,259 ± 22,311 ± 41,102.2 ± 10.96,147 ± 21,109 ± 23,102,166,202,increases,44.3 ± 2.30,"Coll. II released in the culture medium [11]: 77.0 ± 15.58 ng/μg DNA/96 H; Coll. II released in the culture medium [12]: 34.0 ± 3.11 ng/μg DNA/96 H; Coll. II released in the culture medium [13]: 47.2 ± 5.19 ng/μg DNA/96 H; Coll. II released in the culture medium [14]: 37.4 ± 1.98 ng/μg DNA/96 H; Coll. II released in the culture medium [15]: 44.2 ± 11.6 ng/μg DNA/96 H; Coll. II released in the culture medium [16]: 25.3 ± 2.20 ng/μg DNA/96 H; Coll. II released in the culture medium [17]: 38.2 ± 5.71 ng/μg DNA/96 H; Coll. II in the clusters [18]: 78.8 ± 10.5 ng/μg DNA; Coll. II in the clusters [19]: 114.7 ± 10.55 ng/μg DNA; Collagen II in the clusters, effect in words (foetal calf serum): An increase in collagen II is observed"
"Oc1cc(O)c2c(c1)O[C@H](c1cc(O)c(O)c(O)c1)[C@@H](O)[C@@H]2c1c(O)cc(O)c2c1O[C@H](c1cc(O)c(O)c(O)c1)[C@@H](O)C2 [Substance Ib, GC-(4 alpha→8) GC]",98 ± 9 ng per μg of DNA,394,121 ± 10 ng per μg of DNA,572,158 ± 16 ng per μg of DNA,728,222 ± 26,322 ± 33,392 ± 46,112 ± 19,158 ± 14,190 ± 22,59.9 ± 0.6,91.7 ± 6.1,137.7 ± 13.4,107,155,197,increases,41.4 ± 0.51,"Coll. II released in the culture medium [11]: 81.1 ± 20.2 ng/μg DNA/96 H; Coll. II released in the culture medium [12]: 33.3 ± 4.61 ng/μg DNA/96 H; Coll. II released in the culture medium [13]: 55.0 ± 17.21 ng/μg DNA/96 H; Coll. II released in the culture medium [14]: 38.2 ± 2.60 ng/μg DNA/96 H; Coll. II released in the culture medium [15]: 56.3 ± 12.41 ng/μg DNA/96 H; Coll. II released in the culture medium [16]: 29.6 ± 3.44 ng/μg DNA/96 H; Coll. II released in the culture medium [17]: 46.3 ± 2.61 ng/μg DNA/96 H; Coll. II in the clusters [18]: 81.6 ± 16.00 ng/μg DNA; Coll. II in the clusters [19]: 113.2 ± 18.25 ng/μg DNA; Collagen II in the clusters, effect in words (foetal calf serum): An increase in collagen II is observed"
